What was measured:
Assay type in all cases: cell-based, human
[1] = tested on: cleaved-PARP in A549 cells; test: Flow cytometry of cleaved-PARP, A549; details: A549, 25 μM Pt(IV)-4C or 7.5 μM Pt(IV)-5C for 5 hours, analyzed 12 hours post treatment
Procedure: FIG. 12 is a series of histograms indicating Pt(IV)-4C and Pt(IV)-5C-induced cleavage of PARP in A549 cells (top panels) and in DU145 cells (bottom). A549 cells were treated for 5 hours with control (left), 25 μM Pt(IV)-4C (center), or 7.5 μM Pt(IV)-5C (right), and analyzed 12 hours post treatment. DU145 cells were treated for 2 hours with control (left), 10 μM Pt(IV)-4C (center), or 2.5 μM Pt(IV)-5C (right), and analyzed seven hours post treatment. Data are representative of three independent experiments.
Cells (200,000 to 250,000) were seeded in 60 mm dishes and incubated at 37° C. in a humidified, 5% CO2 atmosphere for 2 days to reach ˜50-60% confluence. The cells were treated with the platinum complexes as indicated, the floating cells were collected, and both attached and floating cells were washed 2× with PBS. The cells were resuspended in fresh medium and incubated as indicated. After incubation, both the floating and attached cells were collected and fixed by incubation in 4% formaldehyde for 10 minutes at room temperature. The fixed cells were pelleted and permeabilized by incubation in 500 μL of ice-cold methanol at 4° C. for 10 minutes. The samples were stored at −20° C. until analysis. For analysis, the cells were pelleted and washed 2× with 1% BSA in PBS. […] After washing 2× with 1% BSA, the cells were resuspended in PBS and analyzed on a Becton Dickinson FACS Calibur. […]

DU145 cells = test: Cell cycle analysis, propidium iodide flow cytometry, DU145; details: DU145, 10 μM Pt(IV)-4C or 2.5 μM Pt(IV)-5C for 1 hour, analyzed 12 hours post treatment
Procedure: (§1) FIG. 10 is a series of plots from a cell cycle analysis of A549 cells (top) and DU145 cells (bottom) cells treated with Pt(IV)-4C and Pt(IV)-5C. A549 cells were treated for 5 hours with control (left), 25 μM Pt(IV)-4C (center), or 7.5 μM Pt(IV)-5C (right), and analyzed 12 hours post treatment. DU145 cells were treated for 1 hour with control (left), 10 μM Pt(IV)-4C (center), or 2.5 μM Pt(IV)-5C (right), and analyzed 12 hours post treatment. Data are representative of three independent experiments.
(§2) Cells (˜50 to 60% confluent in 60 mm dishes) were treated as indicated with the platinum compound. After treatment, the floating cells were collected, and both attached and floating cells were washed 2× with PBS. The cells were resuspended in fresh medium and incubated as indicated. The cells were harvested (both the floating and attached cells were collected), counted, and pelleted. The cells were then washed two times with 5 mL PBS, fixed by resuspending in 0.1 mL of PBS and 1 mL of ice-cold 95% ethanol with gentle vortexing. Fixed cells were stored at 4° C. until analysis. For analysis, fixed cells were washed once with 1-2 mL of PBS and centrifuged at 500×g for 5 minutes. The cell pellet was resuspended in 100 μL of a 1.0% Triton X-100 buffer solution, and 100 μL of a 1.0 mg/mL RNAse solution was added and allowed to stand at room temperature for 10-15 minutes. […]

A549 cells [2] = test: Hoechst/PI staining, confocal microscopy, A549
Procedure: Cells (100,000 to 125,000) were seeded into 35 mm dishes and incubated for 48 hours at 37° C. The cells were treated with control, Pt(IV)-4C, or Pt(IV)-5C, and while in the dark, the cells were washed 2× with 1 mL PBS. After washing, 1 mL of a 2 μg/mL Hoechst 33342 and 10 μg/mL PI solution (in PBS) was added, and the cells were incubated for 15 minutes at room temperature. Images were acquired within 5 minutes with a Nikon A1R confocal laser scanning microscopy system (CLSM) mounted on a Nikon Eclipse Ti. At least three random areas on each dish were imaged.
Analysis of Hoechst (Ho) and PI staining by confocal microscopy also was performed to detect cell death. PI stains cells with membrane damage, whereas Ho stains both live and apoptotic cells (although apoptotic cells have more intense Ho fluorescence). […] Additionally, unlike A549, the PI positive cells in Pt(IV)-4C treated cells were higher than Pt(IV)-5C treated cells.

A549 cells [3] = test: Cell cycle analysis, propidium iodide flow cytometry, A549; details: A549, 25 μM Pt(IV)-4C or 7.5 μM Pt(IV)-5C for 5 hours, analyzed 12 hours post treatment
Procedure: as §1, §2

| Molecule | fold increase of cleaved-PARP [1] | effect on the cell cycle / sub-G1 peak (DU145 cells) | Hoechst (Ho) fluorescence compared to control (A549 cells [2]) | PI fluorescence compared to control (A549 cells [2]) | effect on the cell cycle / sub-G1 peak (A549 cells [3]) |
| --- | --- | --- | --- | --- | --- |
| CC(=O)[O][Pt]([Cl])([Cl])[O]C(C)=O.CCCCCOc1ccnc(-c2cc(OCCCCC)ccn2)c1 [Pt(IV)-5C, [Pt(IV)Cl2(OAc)2(4,4′-dipentoxy-2,2′-bipyridine)]] | ~7 fold | did not affect the cell cycle | increased Ho fluorescence | no difference | decreased percentage of cells in the G1 phase and a corresponding increase in the sub-G1 peak |
| [Pt(IV)Cl2(OAc)2(4,4′-dibutoxy-2,2′-bipyridine)] [Pt(IV)-4C] | ~7 fold | did not affect the cell cycle | increased Ho fluorescence | increased PI positive cells | decreased percentage of cells in the G1 phase and a corresponding increase in the sub-G1 peak |

Reference: patent US10316050B2, “PT (IV) complexes containing 4,4′-disubstituted-2,2′-bipyridyl and their use in cancer therapy” (THE BOARD OF REGENTS OF THE NEVADA SYSTEM OF HIGHER …, priority 2014, dated 2019)
